Patent US9492365B2, “Use of caftaric acid and derivatives in food supplement for regulating skin pigmentation” (Nestec S.A., priority 2010, dated 2016)

How the values were obtained:
HDF = test: Highest non cytotoxic concentration on HDF; type: cell-based; conditions: HDF cells
HPEK = test: Highest non cytotoxic concentration on HPEK; type: cell-based, human; conditions: HPEK cells
B16 murine melanocytes = test: Production of melanin by B16 murine melanocyte cell line; type: cell-based; conditions: B16 melanocytes treated for 72 hours, presence or absence of NDP-MSH; relative to control (FIG. 1); Kojic acid at 400 μg/mL
Description: In order to evaluate the potential beneficial effect of ingredients towards skin de- or pro-pigmentation we used 2D culture of murine melanocytes (B16) and we performed 2 tests: 1—assessment of melanin production and 2—assessment of tyrosinase production. 1. The cell culture conditions. • B16 cells were cultured in DMEM 1 g/L glucose without phenol red supplemented with 10% foetal calf serum, in a humidified chamber at 37° C. and containing 5% CO2. 2. The production of melanin by B16 murine melanocyte cell line. • Cells were incubated with the selected ingredients or the test references (Kojic acid at 400 μg/mL) for 72 hours, in the presence or absence of NDP-MSH an analog of MSH. The total quantity of melanin (extracellular and intracellular) was evaluated by measurement of the optical density at 405 nm of each sample against melanin standards in presence or in absence of NDP-MSH.

tyrosinase = test: Production of tyrosinase by B16 murine melanocyte cell line (immunolabeling); type: cell-based; conditions: B16 melanocytes, 48 hours, immunolabeling (FIG. 2)
Description: In order to evaluate the potential beneficial effect of ingredients towards skin de- or pro-pigmentation we used 2D culture of murine melanocytes (B16) and we performed 2 tests: 1—assessment of melanin production and 2—assessment of tyrosinase production. 1. The cell culture conditions. • B16 cells were cultured in DMEM 1 g/L glucose without phenol red supplemented with 10% foetal calf serum, in a humidified chamber at 37° C. and containing 5% CO2. 3. The production of tyrosinase by B16 murine melanocyte cell line. • Cells were incubated with the selected ingredients or the test references (Kojic acid at 400 μg/mL) for 48 hours. The production of tyrosinase was evaluated by immunolabeling.

filaggrin = test: Synthesis of filaggrin by human epidermal keratinocytes (immunolabeling); type: cell-based; conditions: human primary epidermal keratinocytes, 144 hours
Description: The potential beneficial effect of the Extracts of Example 1 towards skin barrier function and skin hydration was evaluated by using 2D culture of human primary epidermal keratinocytes and we assessed their synthesis of filaggrin. Human epidermal keratinocytes were cultured in control keratinocytes-SFM medium, in a humidified chamber at 37° C. and containing 5% CO2. Cells were incubated with the selected ingredients or the test references (CaCl2 at 1.5 mM) for 144 hours. The production of filaggrin by was evaluated by immunolabeling.

SMILES	Highest non cytotoxic conc. on HDF (HDF)	Highest non cytotoxic conc. on HPEK (HPEK)	Melanin production (B16 murine melanocytes)	Production of tyrosinase (tyrosinase)	Filaggrin production (filaggrin)
O=C(/C=C/c1ccc(O)c(O)c1)O[C@@H](C(=O)O)[C@@H](O)C(=O)O [Caftaric acid]	1 mM	1 mM	decreased the production of melanin in vitro, more efficiently than the tested chicory extract MS-70	decreased by these ingredients but to a limited extent	increased filaggrin production
O=c1cc(CO)occ1O [Kojic acid, reference compound]	–	–	decrease in melanin production	–	–
